# Key:
# [1] = animal models; cited from earlier work
# pancreatin = experiment: Pancreatin stability; assay type: in vitro ADME, porcine; conditions: 1% (w/v) pancreatin, 5 μM, pH 7.5, 37° C.
# Procedure: Pancreatin Stability: Stability studies were conducted by incubating prodrug (5 μM) with 1% (w/v) pancreatin (Sigma, P-1625, from porcine pancreas) in 0.025 M Tris buffer containing 0.5 M NaCl (pH 7.5) at 37° C. for 60 min. The reaction was stopped by addition of 2 volumes of methanol. After centrifugation at 14,000 rpm for […], the supernatant was removed and analyzed by LC/MS/MS.
# [2] = Prodrug stability in human plasma in vitro; assay type: in vitro ADME; conditions: 2.0 μM, 37° C.
# Procedure: (§1) The stabilities of prodrugs were evaluated in one or more in vitro systems using a variety of tissue preparations following methods known in the art. The chemical stability of prodrugs in aqueous buffers at pH's of 2.0, 7.4 and 8.0 were also measured. […] Each preparation was incubated with test compound at 37° C. for one hour. Aliquots (50 μL) were removed at 0, 30, and 60 min and quenched with 0.1% trifluoroacetic acid in acetonitrile. Samples were then centrifuged and analyzed by LC/MS/MS (see Example 86 below for method details).
# [3] = Prodrug stability in rat plasma in vitro; assay type: in vitro ADME; conditions: 2.0 μM, 37° C.
# Procedure: as §1
# [4] = Chemical stability of prodrugs in aqueous buffers; assay type: physicochemical
# Procedure: as §1
# [5] = Caco-2 homogenate S9 stability; assay type: in vitro ADME; conditions: Caco-2 S9 (0.5 mg protein per mL), 5 μM, 37° C.
# Procedure: Caco-2 Homogenate S9 Stability: Caco-2 cells were grown for 21 days prior to harvesting. Culture medium was removed and cell monolayers were rinsed and scraped off into ice-cold 10 mM sodium phosphate/0.15 M potassium chloride, pH 7.4. Cells were lysed by sonication at 4° C. using a probe sonicator. Lysed cells were then transferred into 1.5 mL centrifuge vials and centrifuged at 9000 g for 20 min at 4° C. The resulting supernatant (Caco-2 cell homogenate S9 fraction) was aliquoted into 0.5 mL vials and stored at −80° C. until used.
# For stability studies, prodrug (5 μM) was incubated in Caco-2 homogenate S9 fraction (0.5 mg protein per mL) for 60 min at 37° C. Concentrations of intact prodrug and released baclofen were determined at zero time and 60 minutes using LC/MS/MS.
# [6] = Prodrug stability in rat liver S9; assay type: in vitro ADME; conditions: Rat Liver S9 (0.5 mg/mL), 2.0 μM, NADPH, 37° C.
# Procedure: as §1
# Caco-2 cells = experiment: Caco-2 cellular permeability of prodrugs; assay type: in vitro ADME; conditions: Caco-2 monolayer, ratio of Papp values
# Procedure: For example, cellular permeability may be evaluated by examining the flux of a prodrug across a cultured polarized cell monolayer (e.g., Caco-2 cells). Caco-2 cells obtained from continuous culture (passage less than 28) were seeded at high density onto Transwell polycarbonate filters. Cells were maintained with DMEM/10% fetal calf serum+0.1 mM nonessential amino acids+2 mM L-Gln, 5% CO2/95% O2, 37° C. until the day of the experiment. Permeability studies were conducted at pH 6.5 apically (in 50 mM MES buffer containing 1 mM CaCl2, 1 mM MgCl2, 150 mM NaCl, 3 mM KCl, 1 mM NaH2PO4, 5 mM glucose) and pH 7.4 basolaterally (in Hanks' balanced salt solution containing 10 mM HEPES) in the presence of efflux pump inhibitors (250 μM MK-571, 250 μM Verapamil, 1 mM Ofloxacin). Inserts were placed in 12 or 24 well plates containing buffer and incubated for 30 min at 37 C.°. Prodrug (200 μM) was added to the apical or basolateral compartment (donor) and concentrations of prodrug and/or released parent drug in the opposite compartment (receiver) were determined at intervals over 1 hour using LC/MS/MS. Values of apparent permeability (Papp) were calculated using the equation: Papp=Vr(dC/dt)//(ACo)
# Here Vr is the volume of the receiver compartment in mL; dC/dt is the total flux of prodrug and parent drug (μM/s), determined from the slope of the plot of concentration in the receiver compartment versus time; Co is the initial concentration of prodrug in μM; A is the surface area of the membrane in cm^2.
# [7] = Prodrug stability in human liver S9; assay type: in vitro ADME; conditions: Human Liver S9 (0.5 mg/mL), 2.0 μM, NADPH, 37° C.
# Procedure: as §1
SMILES,absorption following administration into the colon [1],% of Baclofen Released after 60 min (pancreatin) [%],% of Baclofen Released after 60 min [2] [%],% of Prodrug Remaining after 60 min [2] [%],% of Baclofen Released after 60 min [3] [%],% of Prodrug Remaining after 60 min [3] [%],"% of Baclofen Released after 60 min ([4]; aqueous buffer pH 2.0, 37° C.) [%]","% of Prodrug Remaining after 60 min ([4]; aqueous buffer pH 2.0, 37° C.) [%]","% of Baclofen Released after 60 min ([4]; aqueous buffer pH 7.4, 37° C.) [%]","% of Prodrug Remaining after 60 min ([4]; aqueous buffer pH 7.4, 37° C.) [%]","% of Baclofen Released after 60 min ([4]; aqueous buffer pH 8.0, 37° C.) [%]","% of Prodrug Remaining after 60 min ([4]; aqueous buffer pH 8.0, 37° C.) [%]",% of Baclofen Released after 60 min [5] [%],% of Prodrug Remaining after 60 min [5] [%],% of Baclofen Released after 60 min [6] [%],% of Prodrug Remaining after 60 min [6] [%],Ratio A-B/B-A (Caco-2 cells),% of Baclofen Released after 60 min [7] [%],% of Prodrug Remaining after 60 min [7] [%]
"NCC(CC(=O)O)c1ccc(Cl)cc1 (racemic) [Baclofen, (±)-4-Amino-3-(4-chlorophenyl)butanoic acid]",poorly absorbed,–,–,–,–,–,–,–,–,–,–,–,–,–,–,–,–,–,–
"CC(=O)OC(C)OC(=O)NC[C@H](CC(=O)[O-])c1ccc(Cl)cc1.[Na+] (stereo partly drawn) [(30), Sodium 4-[(1-Acetoxyethoxy)carbonylamino]-(3R)-(4-chlorophenyl)-butanoate]",–,9,8,85,42,58,0,100,1,87,3,81,70,24,85,1,3.8,87,7

# Reference: patent US10385014B2, “Acyloxyalkyl carbamate prodrugs, methods of synthesis and use” (ARBOR PHARMACEUTICALS, LLC, priority 2003, dated 2019)
